Literature values in patent US20250073171A1, “DRUG DELIVERY SYSTEM FOR THE TREATMENT OF FEMALE SEXUAL INTEREST AND AROUSAL DISORDER” (Freya Pharma Solutions Holding B.V., priority 2023, published 2025).

Assays:
SHBG = molecular target: T1, SHBG (Homo sapiens, UniProt P04278); details: bloodstream
T1 sequence (P04278 30-402): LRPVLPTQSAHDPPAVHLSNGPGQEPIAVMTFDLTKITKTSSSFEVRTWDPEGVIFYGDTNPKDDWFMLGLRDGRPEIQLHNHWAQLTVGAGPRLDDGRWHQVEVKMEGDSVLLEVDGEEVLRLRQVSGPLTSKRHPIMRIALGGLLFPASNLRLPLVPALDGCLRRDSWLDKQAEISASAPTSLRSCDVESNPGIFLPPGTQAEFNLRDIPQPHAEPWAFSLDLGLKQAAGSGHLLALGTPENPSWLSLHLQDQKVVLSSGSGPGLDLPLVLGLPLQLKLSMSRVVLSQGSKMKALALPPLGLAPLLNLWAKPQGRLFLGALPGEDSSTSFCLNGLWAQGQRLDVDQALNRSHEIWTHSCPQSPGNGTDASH

albumin = albumin (Homo sapiens, UniProt P02768); details: bloodstream
Chain of albumin (P02768 25-609): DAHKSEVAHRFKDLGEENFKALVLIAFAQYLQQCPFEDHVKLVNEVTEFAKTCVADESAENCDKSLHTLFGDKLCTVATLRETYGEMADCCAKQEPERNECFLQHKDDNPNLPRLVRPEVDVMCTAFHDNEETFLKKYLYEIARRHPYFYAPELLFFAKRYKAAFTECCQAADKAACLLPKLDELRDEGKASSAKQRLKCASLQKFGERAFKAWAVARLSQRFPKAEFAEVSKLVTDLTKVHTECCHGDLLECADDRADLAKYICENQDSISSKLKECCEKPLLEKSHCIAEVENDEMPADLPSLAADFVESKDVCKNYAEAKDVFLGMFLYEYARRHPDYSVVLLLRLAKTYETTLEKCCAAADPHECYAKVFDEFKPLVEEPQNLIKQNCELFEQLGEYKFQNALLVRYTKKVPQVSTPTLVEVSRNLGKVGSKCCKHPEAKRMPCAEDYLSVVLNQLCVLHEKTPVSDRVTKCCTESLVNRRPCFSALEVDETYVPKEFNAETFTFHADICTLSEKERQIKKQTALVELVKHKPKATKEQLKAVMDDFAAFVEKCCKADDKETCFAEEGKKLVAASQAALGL

For C[C@]12CC[C@H]3[C@@H](CCC4=CC(=O)CC[C@@]43C)[C@@H]1CC[C@@H]2O [testosterone, 17-[beta]-hydroxyandrost-4-en-3-one], the “SHBG-bound testosterone, percentage of total testosterone” value (SHBG) is listed as 60-70%, the “free testosterone, percentage of total testosterone” value (bloodstream) is listed as 1-2% and the “T1/2 of free testosterone” value (metabolism of free testosterone) is listed as “approximately 10 min”. The “albumin-bound testosterone, percentage of total testosterone” value (albumin) was 30-40%.
